Values quoted from earlier work in US20140147496A1, “COMPOSITION AND METHOD FOR FERTILITY THERAPY USING NUTRITIONAL SUPPLEMENTS” (FAIRHAVEN HEALTH, LLC, priority 2009, published 2014).
Each block holds one compound with its values, some of them ahead of it.

How the values were obtained:
infertile patients [1] = conditions: 60 mg, mean 103 days, 17 infertile patients
[2] = system: idiopathic asthenozoospermic infertile patients; conditions: after administration
[3] = system: Infertile men with idiopathic asthenozoospermia; conditions: oral
infertile patients [4] = conditions: 2 g/day, two month cross-over, excluding outliers
[5] = system: patients with idiopathic asthenospermia; conditions: 3 g/d
[6] = system: patients with idiopathic asthenospermia; conditions: between baseline, 12 week, or 24 weeks
[7] = system: Patients with inflammatory abacterial prostatovesiculoepididymitis (PVE); conditions: following a 3-month washout period

Coenzyme Q10 in seminal plasma and in sperm cells [2]: significant increase
Coenzyme Q10 levels in seminal plasma and in sperm cells ([3]; after 6 months of therapy): increased significantly
Compound: COC1=C(OC)C(=O)C(C/C=C(\C)CC/C=C(\C)CC/C=C(\C)CC/C=C(\C)CC/C=C(\C)CC/C=C(\C)CC/C=C(\C)CC/C=C(\C)CC/C=C(\C)CCC=C(C)C)=C(C)C1=O [Coenzyme Q10]
motility after incubation (sperm samples; samples with initial normal motility, 5 μM or 50 μM, 24 h): no significant change
motility (sperm samples; sperm samples from 22 asthenospermic men, in vitro, 50 μM): significant increases in motility
standard sperm parameters (infertile patients [1]): no significant changes
fertilization rate (infertile patients [1]; p<0.05): significant improvement
sperm motility [2]: improvement in sperm motility
sperm cell motility ([3]; after 6 months, computer-assisted analysis): significant increase

Compound: C[N+](C)(C)C[C@H](O)CC(=O)[O-] [L-carnitine]
semen quality over placebo (concentration, total and forward motility) (infertile patients [4]): statistically significant improvement

Compound: CC(=O)O[C@H](CC(=O)[O-])C[N+](C)(C)C [LAC, L-acetyl-carnitine]
sperm cell motility [5]: increased

Compound: C[N+](C)(C)CC(O)CC(=O)[O-] (stereo not shown) [carnitine]
motility or total motile sperm counts [6]: no significant differences
production of reactive oxygen species [7]: highest reduction
sperm motility and viability [7]: increased
